Columns and labels:
dogs = assay: Blood pressure, heart rate, ECG and body temperature in conscious dogs (GLP); format: in vivo
Description: The dogs had telemetry transmitters for arterial blood pressure, body temperature and ECG measurements. The study was conducted in two parts.

85 receptors = assay: Eurofins high-throughput binding screen; conditions: 10 µM
volunteers with CUD = assay: Phase 2a study, subjective effects of smoked cannabis (VAS, CRF); format: in vivo, human; conditions: for reduction of cannabis' positive subjective effects compared to placebo: Phase 2a
Description: Participants, in groups of 3−4, completed two 5-d inpatient periods (first period ‘A’ and second period ‘B’) separated by a ≥ 14-d outpatient washout. During the two testing periods, participants received AEF0117 or matching placebo in counterbalanced order (two dosing sequences: AEF0117 first or placebo first). Participants took capsules at 9:00 each day and then smoked a controlled amount of cannabis (approximately 67 mg of THC smoked over 6 min) 3.5 h later (12:30). Ratings of the subjective effects of cannabis were done five times after cannabis administration (20 min, 40 min, 60 min, 90 min and 120 min after cannabis) using a VAS (0–100 mm). […] Participants were told that the cannabis strength could vary from day to day and between participants but that the cannabis they each received at 12:30 that day was the strength available for self-administration that day.
The primary endpoint measuring the good subjective effect of cannabis related to addiction was an ‘Intoxication’ subscale based on a cluster analysis of the 44-item VAS[22], comprising the arithmetic mean of two items: ‘I feel a Good Effect’ and ‘I feel High’[22]. The positive subjective effects of cannabis were further assessed by individual items on the Cannabis Rating Form (CRF)[23], where participants rated the cannabis that they had most recently smoked in terms of ‘Cannabis Cigarette Liking’ and ‘Felt Good Cannabis Effect’ (key secondary endpoints) using a VAS. Cannabis self-administration was evaluated by measuring the number of puffs purchased at each timepoint (key secondary endpoint).
Data from the first dose level were reviewed by the Data Safety Monitoring Board before ascending to the next dose level.
Ratings of subjective effects of cannabis were performed using multiple items from two different instruments: (1) the 44-item VAS[22] and (2) the CRF[23]. Both instruments used visual analog scales (from 0 mm to 100 mm) to measure subjective effects. […] The subscale of the 44-item VAS was initially named the ‘Good Cannabis Effect’ subscale. Before starting the statistical analysis, this subscale was renamed ‘Intoxication’ subscale to avoid confusion with a key secondary endpoint on the CRF labeled ‘Felt Good Cannabis Effect’.
On each study day (days 1–5), at approximately 12:30, participants received an experimenter-administered ‘sample’ of cannabis (two cannabis cigarettes of approximately 800 mg, 7% THC, provided by NIDA). They were guided by an investigator through smoking a total of six 5-s inhalations using a paced-puff smoking procedure, where inhalation duration, time spent holding smoke in the lungs and inter-puff interval were timed. […] To capture a full timecourse of cannabis effects, participants completed the 44-item VAS and a CRF at 12:50, 13:10, 13:30, 14:[…].
As specified in the SAP, the statistical analyses employed an MMRM analysis using the REML as estimation method and structured covariance matrix with compound symmetry; the model included as factors and covariates: sequence, dose, treatment, time and days as fixed effects and subject within sequence as random effect.
Based on the SAP, the following analytical steps depending on results of the various analyses were undertaken. The primary and key secondary endpoints were first analyzed with a global crossover MMRM analysis (using combined cohorts: 0.06 mg + 1 mg).

[1] = GLP mutagenic and genotoxic studies (Ames, chromosome aberration, micronucleus); conditions: GLP in vitro and in vivo studies
Description: The dose of 816 µg per plate is approximately a concentration of 84 µM.
Human lymphocytes were taken from young (18–35 years old) healthy non-smoker individuals.
This assay was carried out both with and without metabolic activation using Aroclor 1254-induced S9 from rat livers (5%). In the test performed without metabolic activation, two treatment durations were studied: (1) 4 h + 16 h recovery period (short-term treatment) and (2) 20 h without recovery period (continuous treatment). In the test performed with metabolic activation, the treatment period of 4 h + 16 h recovery period with 5% S9 mix was used.
As a control for the genotoxicity induction, a single i.p. injection 24 h before sampling of the reference substance cyclophosphamide (CPA, Baxter, batch 5K044J in NaCl at 0.9% in distilled water, at a dose of 25 mg kg^−1 under a volume of 10 ml kg^−1) was used.

[2] = global crossover, 0.06 mg, 20 min after THC
[3] = global crossover, 0.06 mg, 40 min after THC
[4] = global crossover, 0.06 mg, 60 min after THC
[5] = global crossover, 0.06 mg, 90 min after THC
[6] = global crossover, 0.06 mg, 105 min after THC
[7] = global crossover, 1 mg, 20 min after THC
[8] = global crossover, 1 mg, 40 min after THC
[9] = global crossover, 1 mg, 60 min after THC
[10] = global crossover, 1 mg, 90 min after THC
[11] = global crossover, 1 mg, 105 min after THC
[12] = parallel group (period A), 0.06 mg, 20 min after THC
[13] = parallel group (period A), 0.06 mg, 40 min after THC
[14] = parallel group (period A), 0.06 mg, 60 min after THC
[15] = parallel group (period A), 0.06 mg, 90 min after THC
[16] = parallel group (period A), 0.06 mg, 105 min after THC
[17] = parallel group (period A), 1 mg, 20 min after THC
[18] = parallel group (period A), 1 mg, 40 min after THC
[19] = parallel group (period A), 1 mg, 60 min after THC
[20] = parallel group (period A), 1 mg, 90 min after THC
[21] = parallel group (period A), 1 mg, 105 min after THC

Structure (SMILES): COc1ccc(CO[C@H]2CC[C@@]3(C)C(=CC[C@H]4[C@@H]5CC[C@H](C(C)=O)[C@@]5(C)CC[C@@H]43)C2)cc1 [AEF0117, 3β-(4-methoxybenzyloxy)pregn-5-en-20-one]
- adverse effects on blood pressure, heart rate, ECG and body temperature (dogs): did not show any adverse effects
- binding activity at 85 receptors (85 receptors): did not modify binding to any receptor
- cannabis ratings (volunteers with CUD; 0.06 mg, parallel group analysis, period A): significant reduction
- 'Felt Good Cannabis Effect' item on the CRF (volunteers with CUD; 1 mg, global crossover MMRM): significantly reduced
- ratings on the 'Intoxication' subscale of the 44-item VAS (volunteers with CUD; 1 mg, global crossover MMRM): significantly reduced
- reduction of cannabis' positive subjective effects compared to placebo (volunteers with CUD; 0.06 mg): 19%
- reduction of cannabis' positive subjective effects compared to placebo (volunteers with CUD; 1 mg): 38%
- Cannabis cigarette liking item, mean (volunteers with CUD; [2]): 76.2 mm
- Felt good cannabis effect item, mean (volunteers with CUD; [2]): 77.9 mm
- Intoxication subscale, mean (volunteers with CUD; [2]): 63.7 mm
- Cannabis cigarette liking item, mean (volunteers with CUD; [3]): 74.9 mm
- Felt good cannabis effect item, mean (volunteers with CUD; [3]): 76.1 mm
- Intoxication subscale, mean (volunteers with CUD; [3]): 58.8 mm
- Cannabis cigarette liking item, mean (volunteers with CUD; [4]): 72.6 mm
- Felt good cannabis effect item, mean (volunteers with CUD; [4]): 72.7 mm
- Intoxication subscale, mean (volunteers with CUD; [4]): 53.9 mm
- Cannabis cigarette liking item, mean (volunteers with CUD; [5]): 73.5 mm
- Felt good cannabis effect item, mean (volunteers with CUD; [5]): 75.8 mm
- Intoxication subscale, mean (volunteers with CUD; [5]): 47.1 mm
- Cannabis cigarette liking item, mean (volunteers with CUD; [6]): 73.2 mm
- Felt good cannabis effect item, mean (volunteers with CUD; [6]): 75.0 mm
- Intoxication subscale, mean (volunteers with CUD; [6]): 44.4 mm
- Cannabis cigarette liking item, mean (volunteers with CUD; [7]): 61.7 mm
- Felt good cannabis effect item, mean (volunteers with CUD; [7]): 66.8 mm
- Intoxication subscale, mean (volunteers with CUD; [7]): 66.8 mm
- Cannabis cigarette liking item, mean (volunteers with CUD; [8]): 57.8 mm
- Felt good cannabis effect item, mean (volunteers with CUD; [8]): 62.4 mm
- Intoxication subscale, mean (volunteers with CUD; [8]): 61.5 mm
- Cannabis cigarette liking item, mean (volunteers with CUD; [9]): 54.8 mm
- Felt good cannabis effect item, mean (volunteers with CUD; [9]): 58.0 mm
- Intoxication subscale, mean (volunteers with CUD; [9]): 57.2 mm
- Cannabis cigarette liking item, mean (volunteers with CUD; [10]): 54.0 mm
- Felt good cannabis effect item, mean (volunteers with CUD; [10]): 56.1 mm
- Intoxication subscale, mean (volunteers with CUD; [10]): 48.2 mm
- Cannabis cigarette liking item, mean (volunteers with CUD; [11]): 54.4 mm
- Felt good cannabis effect item, mean (volunteers with CUD; [11]): 54.7 mm
- Intoxication subscale, mean (volunteers with CUD; [11]): 43.7 mm
- Cannabis cigarette liking item, mean (volunteers with CUD; [12]): 68.3 mm
- Felt good cannabis effect item, mean (volunteers with CUD; [12]): 73.0 mm
- Intoxication subscale, mean (volunteers with CUD; [12]): 57.1 mm
- Cannabis cigarette liking item, mean (volunteers with CUD; [13]): 65.5 mm
- Felt good cannabis effect item, mean (volunteers with CUD; [13]): 70.2 mm
- Intoxication subscale, mean (volunteers with CUD; [13]): 50.9 mm
- Cannabis cigarette liking item, mean (volunteers with CUD; [14]): 62.3 mm
- Felt good cannabis effect item, mean (volunteers with CUD; [14]): 65.7 mm
- Intoxication subscale, mean (volunteers with CUD; [14]): 44.4 mm
- Cannabis cigarette liking item, mean (volunteers with CUD; [15]): 61.8 mm
- Felt good cannabis effect item, mean (volunteers with CUD; [15]): 67.4 mm
- Intoxication subscale, mean (volunteers with CUD; [15]): 38.0 mm
- Cannabis cigarette liking item, mean (volunteers with CUD; [16]): 63.1 mm
- Felt good cannabis effect item, mean (volunteers with CUD; [16]): 68.2 mm
- Intoxication subscale, mean (volunteers with CUD; [16]): 37.8 mm
- Cannabis cigarette liking item, mean (volunteers with CUD; [17]): 63.9 mm
- Felt good cannabis effect item, mean (volunteers with CUD; [17]): 67.9 mm
- Intoxication subscale, mean (volunteers with CUD; [17]): 67.0 mm
- Cannabis cigarette liking item, mean (volunteers with CUD; [18]): 59.3 mm
- Felt good cannabis effect item, mean (volunteers with CUD; [18]): 60.6 mm
- Intoxication subscale, mean (volunteers with CUD; [18]): 58.9 mm
- Cannabis cigarette liking item, mean (volunteers with CUD; [19]): 54.5 mm
- Felt good cannabis effect item, mean (volunteers with CUD; [19]): 53.3 mm
- Intoxication subscale, mean (volunteers with CUD; [19]): 54.5 mm
- Cannabis cigarette liking item, mean (volunteers with CUD; [20]): 55.7 mm
- Felt good cannabis effect item, mean (volunteers with CUD; [20]): 50.7 mm
- Intoxication subscale, mean (volunteers with CUD; [20]): 45.5 mm
- Cannabis cigarette liking item, mean (volunteers with CUD; [21]): 55.9 mm
- Felt good cannabis effect item, mean (volunteers with CUD; [21]): 52.3 mm
- Intoxication subscale, mean (volunteers with CUD; [21]): 40.8 mm
- genotoxic or mutagenic activity [1]: did not show any genotoxic or mutagenic activity

Reference: paper PMC10287566, “Signaling-specific inhibition of the CB1 receptor for cannabis use disorder: phase 1 and phase 2a randomized trials” (Nature Medicine, 2023)
